According to ChEMBL document CHEMBL5244230, “Artemisinin-derived hybrids and their anticancer activity” (Eur J Med Chem, 2020):

These molecules were tested on HeLa (assay: Antiproliferative activity against human HeLa cells assessed as reduction in cell viability measured for 72 hrs by MTT assay). Conditions: not given.
Assay type: functional, cell-based

Row | Compound | IC50
1 | C[C@H]1[C@@H](NC(=O)COCc2ccc(C(=O)/C=C/c3ccc(F)c(F)c3)cc2)O[C@@H]2O[C@@]3(C)CC[C@H]4[C@H](C)CC[C@@H]1[C@@]24OO3 | 90 nM
2 | C[C@H]1[C@@H](NC(=O)COCc2ccc(/C=C/C(=O)c3cccc(Cl)c3)cc2)O[C@@H]2O[C@@]3(C)CC[C@H]4[C@H](C)CC[C@@H]1[C@@]24OO3 | 1700 nM
3 | C[C@H]1[C@@H](NC(=O)COCc2ccc(C(=O)/C=C/c3ccc(S(C)(=O)=O)cc3)cc2)O[C@@H]2O[C@@]3(C)CC[C@H]4[C@H](C)CC[C@@H]1[C@@]24OO3 | 90 nM
4 | C[C@H]1[C@@H](NC(=O)COCc2ccc(C(=O)/C=C/c3ccc(F)cc3)cc2)O[C@@H]2O[C@@]3(C)CC[C@H]4[C@H](C)CC[C@@H]1[C@@]24OO3 | 90 nM
5 | COc1ccc(OC)c(/C=C/C(=O)c2ccc(COCC(=O)N[C@H]3O[C@@H]4O[C@@]5(C)CC[C@H]6[C@H](C)CC[C@@H]([C@H]3C)[C@@]46OO5)cc2)c1 | 90 nM
6 | C[C@H]1[C@H](NC(=O)COCc2ccc(C(=O)/C=C/c3ccc(OC(F)(F)F)cc3)cc2)O[C@@H]2O[C@@]3(C)CC[C@H]4[C@H](C)CC[C@@H]1[C@@]24OO3 | 100 nM
7 | C[C@H]1[C@@H](NC(=O)COCc2ccc(C(=O)/C=C/c3ccc(Cl)cc3)cc2)O[C@@H]2O[C@@]3(C)CC[C@H]4[C@H](C)CC[C@@H]1[C@@]24OO3 | 90 nM
8 | COc1ccc(/C=C/C(=O)c2ccc(COCC(=O)N[C@@H]3O[C@@H]4O[C@@]5(C)CC[C@H]6[C@H](C)CC[C@@H]([C@H]3C)[C@@]46OO5)cc2)c(OC)c1OC | 100 nM

Each molecule was assayed on HT-29 (assay: Antiproliferative activity against human HT-29 cells assessed as reduction in cell viability measured for 72 hrs by MTT assay). Conditions: HT-29, 72 h.
Assay type: functional, cell-based

Row | Compound | IC50
9 | C[C@H]1[C@@H](NC(=O)COCc2ccc(C(=O)/C=C/c3ccc(F)c(F)c3)cc2)O[C@@H]2O[C@@]3(C)CC[C@H]4[C@H](C)CC[C@@H]1[C@@]24OO3 | 90 nM
10 | C[C@H]1[C@@H](NC(=O)COCc2ccc(/C=C/C(=O)c3cccc(Cl)c3)cc2)O[C@@H]2O[C@@]3(C)CC[C@H]4[C@H](C)CC[C@@H]1[C@@]24OO3 | 1700 nM
11 | C[C@H]1[C@@H](NC(=O)COCc2ccc(C(=O)/C=C/c3ccc(S(C)(=O)=O)cc3)cc2)O[C@@H]2O[C@@]3(C)CC[C@H]4[C@H](C)CC[C@@H]1[C@@]24OO3 | 90 nM
12 | C[C@H]1[C@@H](NC(=O)COCc2ccc(C(=O)/C=C/c3ccc(F)cc3)cc2)O[C@@H]2O[C@@]3(C)CC[C@H]4[C@H](C)CC[C@@H]1[C@@]24OO3 | 90 nM
13 | COc1ccc(OC)c(/C=C/C(=O)c2ccc(COCC(=O)N[C@H]3O[C@@H]4O[C@@]5(C)CC[C@H]6[C@H](C)CC[C@@H]([C@H]3C)[C@@]46OO5)cc2)c1 | 90 nM
14 | C[C@H]1[C@H](NC(=O)COCc2ccc(C(=O)/C=C/c3ccc(OC(F)(F)F)cc3)cc2)O[C@@H]2O[C@@]3(C)CC[C@H]4[C@H](C)CC[C@@H]1[C@@]24OO3 | 100 nM
15 | C[C@H]1[C@@H](NC(=O)COCc2ccc(C(=O)/C=C/c3ccc(Cl)cc3)cc2)O[C@@H]2O[C@@]3(C)CC[C@H]4[C@H](C)CC[C@@H]1[C@@]24OO3 | 90 nM
16 | COc1ccc(/C=C/C(=O)c2ccc(COCC(=O)N[C@@H]3O[C@@H]4O[C@@]5(C)CC[C@H]6[C@H](C)CC[C@@H]([C@H]3C)[C@@]46OO5)cc2)c(OC)c1OC | 100 nM

What follows are molecules tested on NCI-H460 (assay: Antiproliferative activity against human NCI-H460 cells assessed as reduction in cell viability measured for 72 hrs by MTT assay). Conditions: NCI-H460, 72 h.
Assay type: functional, cell-based

Row | Compound | IC50
17 | C[C@H]1[C@@H](NC(=O)COCc2ccc(C(=O)/C=C/c3ccc(F)c(F)c3)cc2)O[C@@H]2O[C@@]3(C)CC[C@H]4[C@H](C)CC[C@@H]1[C@@]24OO3 | 90 nM
18 | C[C@H]1[C@@H](NC(=O)COCc2ccc(/C=C/C(=O)c3cccc(Cl)c3)cc2)O[C@@H]2O[C@@]3(C)CC[C@H]4[C@H](C)CC[C@@H]1[C@@]24OO3 | 1700 nM
19 | C[C@H]1[C@@H](NC(=O)COCc2ccc(C(=O)/C=C/c3ccc(S(C)(=O)=O)cc3)cc2)O[C@@H]2O[C@@]3(C)CC[C@H]4[C@H](C)CC[C@@H]1[C@@]24OO3 | 90 nM
20 | C[C@H]1[C@@H](NC(=O)COCc2ccc(C(=O)/C=C/c3ccc(F)cc3)cc2)O[C@@H]2O[C@@]3(C)CC[C@H]4[C@H](C)CC[C@@H]1[C@@]24OO3 | 90 nM
21 | COc1ccc(OC)c(/C=C/C(=O)c2ccc(COCC(=O)N[C@H]3O[C@@H]4O[C@@]5(C)CC[C@H]6[C@H](C)CC[C@@H]([C@H]3C)[C@@]46OO5)cc2)c1 | 90 nM
22 | C[C@H]1[C@H](NC(=O)COCc2ccc(C(=O)/C=C/c3ccc(OC(F)(F)F)cc3)cc2)O[C@@H]2O[C@@]3(C)CC[C@H]4[C@H](C)CC[C@@H]1[C@@]24OO3 | 100 nM
23 | C[C@H]1[C@@H](NC(=O)COCc2ccc(C(=O)/C=C/c3ccc(Cl)cc3)cc2)O[C@@H]2O[C@@]3(C)CC[C@H]4[C@H](C)CC[C@@H]1[C@@]24OO3 | 90 nM
24 | COc1ccc(/C=C/C(=O)c2ccc(COCC(=O)N[C@@H]3O[C@@H]4O[C@@]5(C)CC[C@H]6[C@H](C)CC[C@@H]([C@H]3C)[C@@]46OO5)cc2)c(OC)c1OC | 100 nM

These molecules were tested on A549 (assay: Antiproliferative activity against human A549 cells assessed as reduction in cell viability measured for 72 hrs by MTT assay). Conditions: A549, 72 h.
Assay type: functional, cell-based

Row | Compound | IC50
25 | C[C@H]1[C@@H](NC(=O)COCc2ccc(C(=O)/C=C/c3ccc(F)c(F)c3)cc2)O[C@@H]2O[C@@]3(C)CC[C@H]4[C@H](C)CC[C@@H]1[C@@]24OO3 | 90 nM
26 | C[C@H]1[C@@H](NC(=O)COCc2ccc(/C=C/C(=O)c3cccc(Cl)c3)cc2)O[C@@H]2O[C@@]3(C)CC[C@H]4[C@H](C)CC[C@@H]1[C@@]24OO3 | 1700 nM
27 | C[C@H]1[C@@H](NC(=O)COCc2ccc(C(=O)/C=C/c3ccc(S(C)(=O)=O)cc3)cc2)O[C@@H]2O[C@@]3(C)CC[C@H]4[C@H](C)CC[C@@H]1[C@@]24OO3 | 90 nM
28 | C[C@H]1[C@@H](NC(=O)COCc2ccc(C(=O)/C=C/c3ccc(F)cc3)cc2)O[C@@H]2O[C@@]3(C)CC[C@H]4[C@H](C)CC[C@@H]1[C@@]24OO3 | 90 nM
29 | COc1ccc(OC)c(/C=C/C(=O)c2ccc(COCC(=O)N[C@H]3O[C@@H]4O[C@@]5(C)CC[C@H]6[C@H](C)CC[C@@H]([C@H]3C)[C@@]46OO5)cc2)c1 | 90 nM
30 | C[C@H]1[C@H](NC(=O)COCc2ccc(C(=O)/C=C/c3ccc(OC(F)(F)F)cc3)cc2)O[C@@H]2O[C@@]3(C)CC[C@H]4[C@H](C)CC[C@@H]1[C@@]24OO3 | 100 nM
31 | C[C@H]1[C@@H](NC(=O)COCc2ccc(C(=O)/C=C/c3ccc(Cl)cc3)cc2)O[C@@H]2O[C@@]3(C)CC[C@H]4[C@H](C)CC[C@@H]1[C@@]24OO3 | 90 nM
32 | COc1ccc(/C=C/C(=O)c2ccc(COCC(=O)N[C@@H]3O[C@@H]4O[C@@]5(C)CC[C@H]6[C@H](C)CC[C@@H]([C@H]3C)[C@@]46OO5)cc2)c(OC)c1OC | 100 nM

These molecules were tested on MDA-MB-231 (assay: Antiproliferative activity against human MDA-MB-231 cells assessed as reduction in cell viability measured for 72 hrs by MTT assay). Conditions: MDA-MB-231, 72 h.
Assay type: functional, cell-based

Row | Compound | IC50
33 | C[C@H]1[C@@H](NC(=O)COCc2ccc(C(=O)/C=C/c3ccc(F)c(F)c3)cc2)O[C@@H]2O[C@@]3(C)CC[C@H]4[C@H](C)CC[C@@H]1[C@@]24OO3 | 90 nM
34 | C[C@H]1[C@@H](NC(=O)COCc2ccc(/C=C/C(=O)c3cccc(Cl)c3)cc2)O[C@@H]2O[C@@]3(C)CC[C@H]4[C@H](C)CC[C@@H]1[C@@]24OO3 | 1700 nM
35 | C[C@H]1[C@@H](NC(=O)COCc2ccc(C(=O)/C=C/c3ccc(S(C)(=O)=O)cc3)cc2)O[C@@H]2O[C@@]3(C)CC[C@H]4[C@H](C)CC[C@@H]1[C@@]24OO3 | 90 nM
36 | C[C@H]1[C@@H](NC(=O)COCc2ccc(C(=O)/C=C/c3ccc(F)cc3)cc2)O[C@@H]2O[C@@]3(C)CC[C@H]4[C@H](C)CC[C@@H]1[C@@]24OO3 | 90 nM
37 | COc1ccc(OC)c(/C=C/C(=O)c2ccc(COCC(=O)N[C@H]3O[C@@H]4O[C@@]5(C)CC[C@H]6[C@H](C)CC[C@@H]([C@H]3C)[C@@]46OO5)cc2)c1 | 90 nM
38 | C[C@H]1[C@H](NC(=O)COCc2ccc(C(=O)/C=C/c3ccc(OC(F)(F)F)cc3)cc2)O[C@@H]2O[C@@]3(C)CC[C@H]4[C@H](C)CC[C@@H]1[C@@]24OO3 | 100 nM
39 | C[C@H]1[C@@H](NC(=O)COCc2ccc(C(=O)/C=C/c3ccc(Cl)cc3)cc2)O[C@@H]2O[C@@]3(C)CC[C@H]4[C@H](C)CC[C@@H]1[C@@]24OO3 | 90 nM
40 | COc1ccc(/C=C/C(=O)c2ccc(COCC(=O)N[C@@H]3O[C@@H]4O[C@@]5(C)CC[C@H]6[C@H](C)CC[C@@H]([C@H]3C)[C@@]46OO5)cc2)c(OC)c1OC | 100 nM
